Assay: octanol/water partition coefficient (log P) by high performance liquid chromatography according to JIS Z 7260-117 (2006)
Assay type: physicochemical
Text: The combination which is the best mode described above can be confirmed from a numerical value of an octanol/water partition coefficient (log Pow, hereinafter abbreviated as “log P”) which is one of simple measures for evaluating a condensation property of chemicals. In the present invention, the smaller the value of log P is, the better the balance between the vulcanization speed, securing of the adhesion performance and the accumulativeness in human bodies is.
In the present invention (including examples and the like described later), the octanol/water partition coefficient (log P) described above can be measured by a high performance liquid chromatography according to JIS Z 7260-117 (2006), and it is defined by the following equation: log P=log(┌Co┘/┌Cw┘)
Co: concentration of a test substance in a 1-octanol layer
Cw: concentration of a test substance in an aqueous layer
Also, the octanol/water partition coefficients (log P) of the respective vulcanization accelerators obtained (production examples 1 to 6) were measured by a high performance liquid chromatography according to JIS Z 7260-117 (2006). A high performance liquid chromatography manufactured by Shimadzu Corporation was used.

Row | SMILES | octanol/water partition coefficient (log P)
1 | CCN(Sc1nc2ccccc2s1)C(C)(C)C [N-ethyl-N-t-butylbenzothiazole-2-sulpheneamide] | 4.9
2 | CC(C)N(Sc1nc2ccccc2s1)C(C)(C)C [N-i-propyl-N-t-butylbenzothiazole-2-sulpheneamide] | 5.1

Results, then the compound that gave them:

Row | octanol/water partition coefficient (log P) | SMILES
3 | 4.5 | CN(Sc1nc2ccccc2s1)C(C)(C)C [N-methyl-N-t-butylbenzothiazole-2-sulpheneamide]
4 | 5.8 | CCCCN(Sc1nc2ccccc2s1)C(C)(C)C [N-n-butyl-N-t-butylbenzothiazole-2-sulpheneamide]
5 | 5.3 | CCCN(Sc1nc2ccccc2s1)C(C)(C)C [N-n-propyl-N-t-butylbenzothiazole-2-sulpheneamide]

— patent publication US8859653B2, “Rubber-steel cord composite” (Bridgestone Corporation, priority 2009, dated 2014)
